From PubChem BioAssay (NCI)
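GI50 marks 50% less growth. The concentration for full growth arrest is given as TGI.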

Columns and labels:
Assay in all cases: inhibition of tumour cell growth, NCI panel, 384-well format
A498 renal = test system: A498 renal
ACHN renal = test system: ACHN renal
BT-549 breast = test system: BT-549 breast
COLO 205 colon = test system: COLO 205 colon
DU-145 prostate = test system: DU-145 prostate
EKVX NSCLC = test system: EKVX NSCLC
HCC-2998 colon = test system: HCC-2998 colon
HCT-116 colon = test system: HCT-116 colon
HCT-15 colon = test system: HCT-15 colon
HOP-92 NSCLC = test system: HOP-92 NSCLC
HT29 colon = test system: HT29 colon
IGROV1 ovarian = test system: IGROV1 ovarian
K-562 leukemia = test system: K-562 leukemia
KM12 colon = test system: KM12 colon
M14 melanoma = test system: M14 melanoma
MALME-3M melanoma = test system: MALME-3M melanoma
MCF7 breast = test system: MCF7 breast
MDA-MB-231 breast = test system: MDA-MB-231 breast
MDA-MB-435 melanoma = test system: MDA-MB-435 melanoma
MDA-MB-468 breast = test system: MDA-MB-468 breast
MOLT-4 leukemia = test system: MOLT-4 leukemia
NCI-H226 lung = test system: NCI-H226 lung
NCI-H322M lung = test system: NCI-H322M lung
NCI-H460 NSCLC = test system: NCI-H460 NSCLC
NCI-H522 lung = test system: NCI-H522 lung
NCI/ADR-RES ovarian = test system: NCI/ADR-RES ovarian
OVCAR-3 ovarian = test system: OVCAR-3 ovarian
OVCAR-4 ovarian = test system: OVCAR-4 ovarian
OVCAR-8 ovarian = test system: OVCAR-8 ovarian
PC-3 prostate = test system: PC-3 prostate
RXF 393 renal = test system: RXF 393 renal
SF-268 CNS = test system: SF-268 CNS
SF-295 CNS = test system: SF-295 CNS
SF-539 CNS = test system: SF-539 CNS
SK-MEL-2 melanoma = test system: SK-MEL-2 melanoma
SK-MEL-28 melanoma = test system: SK-MEL-28 melanoma
SK-MEL-5 melanoma = test system: SK-MEL-5 melanoma
SN12C renal = test system: SN12C renal
SNB-19 CNS = test system: SNB-19 CNS
SNB-75 CNS = test system: SNB-75 CNS
SR leukemia = test system: SR leukemia
SW-620 colon = test system: SW-620 colon
TK-10 renal = test system: TK-10 renal
U251 glioblastoma = test system: U251 glioblastoma
UACC-257 melanoma = test system: UACC-257 melanoma
UACC-62 melanoma = test system: UACC-62 melanoma
UO-31 renal = test system: UO-31 renal

C[C@@H](O)[C@H](NC(=O)N[C@@H](CC(N)=O)c1nc([C@@H](N)CO)no1)C(=O)O
GI50 (A498 renal): > 100 µM | TGI (A498 renal): > 100 µM | GI50 (ACHN renal): > 100 µM | TGI (ACHN renal): > 100 µM | GI50 (BT-549 breast): > 100 µM | TGI (BT-549 breast): > 100 µM | GI50 (COLO 205 colon): > 100 µM | TGI (COLO 205 colon): > 100 µM | GI50 (DU-145 prostate): > 100 µM | TGI (DU-145 prostate): > 100 µM | GI50 (EKVX NSCLC): > 100 µM | TGI (EKVX NSCLC): > 100 µM | GI50 (HCC-2998 colon): > 100 µM | TGI (HCC-2998 colon): > 100 µM | GI50 (HCT-116 colon): > 100 µM | TGI (HCT-116 colon): > 100 µM | GI50 (HCT-15 colon): > 100 µM | TGI (HCT-15 colon): > 100 µM | GI50 (HOP-92 NSCLC): > 100 µM | TGI (HOP-92 NSCLC): > 100 µM | GI50 (HT29 colon): > 100 µM | TGI (HT29 colon): > 100 µM | GI50 (IGROV1 ovarian): > 100 µM | TGI (IGROV1 ovarian): > 100 µM | GI50 (K-562 leukemia): > 100 µM | TGI (K-562 leukemia): > 100 µM | GI50 (KM12 colon): > 100 µM | TGI (KM12 colon): > 100 µM | GI50 (M14 melanoma): > 100 µM | TGI (M14 melanoma): > 100 µM | GI50 (MALME-3M melanoma): > 100 µM | TGI (MALME-3M melanoma): > 100 µM | GI50 (MCF7 breast): > 100 µM | TGI (MCF7 breast): > 100 µM | GI50 (MDA-MB-231 breast): > 100 µM | TGI (MDA-MB-231 breast): > 100 µM | GI50 (MDA-MB-435 melanoma): > 100 µM | TGI (MDA-MB-435 melanoma): > 100 µM | GI50 (MDA-MB-468 breast): > 100 µM | TGI (MDA-MB-468 breast): > 100 µM | GI50 (MOLT-4 leukemia): > 100 µM | TGI (MOLT-4 leukemia): > 100 µM | GI50 (NCI-H226 lung): > 100 µM | TGI (NCI-H226 lung): > 100 µM | GI50 (NCI-H322M lung): > 100 µM | TGI (NCI-H322M lung): > 100 µM | GI50 (NCI-H460 NSCLC): > 100 µM | TGI (NCI-H460 NSCLC): > 100 µM | GI50 (NCI-H522 lung): > 100 µM | TGI (NCI-H522 lung): > 100 µM | GI50 (NCI/ADR-RES ovarian): > 100 µM | TGI (NCI/ADR-RES ovarian): > 100 µM | GI50 (OVCAR-3 ovarian): > 100 µM | TGI (OVCAR-3 ovarian): > 100 µM | GI50 (OVCAR-4 ovarian): > 100 µM | TGI (OVCAR-4 ovarian): > 100 µM | GI50 (OVCAR-8 ovarian): > 100 µM | TGI (OVCAR-8 ovarian): > 100 µM | GI50 (PC-3 prostate): > 100 µM | TGI (PC-3 prostate): > 100 µM | GI50 (RXF 393 renal): > 100 µM | TGI (RXF 393 renal): > 100 µM | GI50 (SF-268 CNS): > 100 µM | TGI (SF-268 CNS): > 100 µM | GI50 (SF-295 CNS): > 100 µM | TGI (SF-295 CNS): > 100 µM | GI50 (SF-539 CNS): > 100 µM | TGI (SF-539 CNS): > 100 µM | GI50 (SK-MEL-2 melanoma): > 100 µM | TGI (SK-MEL-2 melanoma): > 100 µM | GI50 (SK-MEL-28 melanoma): > 100 µM | TGI (SK-MEL-28 melanoma): > 100 µM | GI50 (SK-MEL-5 melanoma): > 100 µM | TGI (SK-MEL-5 melanoma): > 100 µM | GI50 (SN12C renal): > 100 µM | TGI (SN12C renal): > 100 µM | GI50 (SNB-19 CNS): > 100 µM | TGI (SNB-19 CNS): > 100 µM | GI50 (SNB-75 CNS): > 100 µM | TGI (SNB-75 CNS): > 100 µM | GI50 (SR leukemia): > 100 µM | TGI (SR leukemia): > 100 µM | GI50 (SW-620 colon): > 100 µM | TGI (SW-620 colon): > 100 µM | GI50 (TK-10 renal): > 100 µM | TGI (TK-10 renal): > 100 µM | GI50 (U251 glioblastoma): > 100 µM | TGI (U251 glioblastoma): > 100 µM | GI50 (UACC-257 melanoma): > 100 µM | TGI (UACC-257 melanoma): > 100 µM | GI50 (UACC-62 melanoma): > 100 µM | TGI (UACC-62 melanoma): > 100 µM | GI50 (UO-31 renal): > 100 µM | TGI (UO-31 renal): > 100 µM
